Data: patent US20220202783A1, “Use Of ADAM9 Inhibitor As Immunomodulator” (China Medical University, priority 2019, published 2022)

Tests used:
Type in all cases: cell-based
[1] = cytotoxicity assay in 293 cells; set-up: key to effect of inhibiting tumor cell growth: “+” represents that the compound has the effect of inhibiting tumor cell growth; details: 293
[2] = system: kidney cancer cells (293); assay: cytotoxicity assay in 293 cells; set-up: key to effect of inhibiting tumor cell growth: “+” represents that the compound has the effect of inhibiting tumor cell growth; details: Homo sapiens, HEK293
[3] = cytotoxicity assay in HNOF cells; set-up: key to effect of inhibiting tumor cell growth: “+” represents that the compound has the effect of inhibiting tumor cell growth; details: human, HNOF cells
[4] = system: HNOF; assay: cytotoxicity assay in HNOF cells; set-up: key to effect of inhibiting tumor cell growth: “+” represents that the compound has the effect of inhibiting tumor cell growth; details: HNOF
[5] = system: lung cancer cells (A549); assay: cytotoxicity assay in A549 cells; set-up: key to effect of inhibiting tumor cell growth: “+” represents that the compound has the effect of inhibiting tumor cell growth; details: for IC50: Homo sapiens
Description: (§1) Please refer to FIG. 1A, FIG. 1B and Table 2, which show the analysis results of the compound of Formula (I) inhibiting ADAM9 activity. In FIG. 1A, Bm7 lung cancer cells were treated with the derivatives of the compound 6X-0310, and then cultured under anchorage-free culture condition. The expressions of ADAM9 and CDCP1 in Bm7 lung cancer cells were detected by Western blot, in which EF1α is an internal control, and mock represents Bm7 lung cancer cells without treatment. […] In the experiment, the compounds of Formula (I) of Example 1 to Example 32 were further performed cytotoxicity assay to measure the IC50 value of the compounds of Formula (I) of the present disclosure in lung cancer cell lines.

[6] = system: lung cancer cells (H1299); assay: cytotoxicity assay in H1299 cells; set-up: key to effect of inhibiting tumor cell growth: “+” represents that the compound has the effect of inhibiting tumor cell growth; details: for effect of inhibiting tumor cell growth: H1299; for IC50: Homo sapiens, NCI-H1299
Description: as §1

[7] = system: lung cancer cells (TC1); assay: cytotoxicity assay in TC1 cells; set-up: key to effect of inhibiting tumor cell growth: “+” represents that the compound has the effect of inhibiting tumor cell growth; details: for IC50: TC-1
Description: as §1

[8] = system: lung cancer cells (Bm7brmx2); assay: cytotoxicity assay in Bm7brmx2 cells; set-up: key to effect of inhibiting tumor cell growth: “+” represents that the compound has the effect of inhibiting tumor cell growth
Description: as §1

[9] = system: lung cancer cells (Bm7brmx2-1st); assay: cytotoxicity assay in Bm7brmx2-1st cells; set-up: key to effect of inhibiting tumor cell growth: “+” represents that the compound has the effect of inhibiting tumor cell growth
Description: as §1

[10] = system: lung cancer cells (Bm7brmx2-2nd); assay: cytotoxicity assay in Bm7brmx2-2nd cells; set-up: key to effect of inhibiting tumor cell growth: “+” represents that the compound has the effect of inhibiting tumor cell growth
Description: as §1

[11] = system: Bm7 lung cancer cells; assay: cytotoxicity assay, FIG. 1B and Table 2 summary
Description: as §1

[12] = system: CDCP1 in Bm7 lung cancer cells; assay: Western blot of ADAM9 and CDCP1 expression in Bm7 cells; details: anchorage-free culture
Description: as §1

Row | Structure (SMILES) | effect of inhibiting tumor cell growth [1] | IC50 [2] [µM] | IC50 [3] [µM] | effect of inhibiting tumor cell growth [4] | effect of inhibiting tumor cell growth [5] | IC50 [5] [µM] | effect of inhibiting tumor cell growth [6] | IC50 [6] [µM] | effect of inhibiting tumor cell growth [7] | IC50 [7] [µM] | IC50 [8] [µM] | effect of inhibiting tumor cell growth [8] | IC50 [9] [µM] | effect of inhibiting tumor cell growth [9] | IC50 [10] [µM] | effect of inhibiting tumor cell growth [10] | tumor cell cytotoxicity compared with the core structure compound 6X-0310 [11] | expression of CDCP1 [12]
1 | COc1ccc(OC)c(/C=N/Nc2nc(CCN3C(=O)c4ccccc4C3=O)cs2)c1 [2X-0295] | + | 77.4 | 78.4 | + | + | 1020 | + | 72 | + | 79 | 75.2 | + | 53.2 | + | 267 | + | stronger tumor cell cytotoxicity | reduce the expression of CDCP1
2 | CSc1ccc(/C=C(/C#N)c2nc(CCN3C(=O)c4ccccc4C3=O)cs2)cc1 [4X-0296] | + | 79.2 | 96.2 | + | + | 167 | + | 94.5 | + | 73.6 | 92 | + | 39.3 | + | 447 | + | stronger tumor cell cytotoxicity | reduce the expression of CDCP1
3 | N#C/C(=C\c1ccc(OCc2cccc(C(F)(F)F)c2)cc1)c1nc(CCN2C(=O)c3ccccc3C2=O)cs1 [6X-0310] | + | 58.9 | 141 | + | + | 200 | + | 116 | + | 111 | 176 | + | 54.6 | + | 250 | + | – | reduce the expression of CDCP1
4 | O=C1c2ccccc2C(=O)N1CCc1csc(COc2ccccc2Cl)n1 [12W-0264] | + | 59.7 | > 125 | + | + | 162 | + | 138 | + | 88.9 | 99.2 | + | 40.9 | + | 151 | + | stronger tumor cell cytotoxicity | reduce the expression of CDCP1
5 | Cc1ccc(-c2nc(CCN3C(=O)c4ccccc4C3=O)cs2)cc1 [12W-0274] | + | 21.8 | 125 | + | + | > 125 | + | 203 | + | 161 | 913 | + | 80.6 | + | 472 | + | – | –
6 | O=C1c2ccccc2C(=O)N1CCc1csc(-c2cccc(F)c2)n1 [12W-0275] | + | 109 | 129 | + | + | 199 | + | 156 | + | 103 | 212 | + | 97 | + | 441 | + | – | –
7 | O=C1c2ccccc2C(=O)N1CCc1csc(-c2nc(CCN3C(=O)c4ccccc4C3=O)cs2)n1 [12W-0290] | + | 69.4 | 147 | + | + | > 125 | + | 159 | + | 399 | 845 | + | 84.2 | + | 3980 | + | – | –
